Assay results from ChEMBL document CHEMBL4483862, “Open-source discovery of chemical leads for next-generation chemoprotective antimalarials” (2018).

System: Plasmodium berghei
Experiment: Luciferase/luciferin-expressing antifolate-resistant parasites were used to infect a culture of HepG2 cells that were pre-incubated with compounds. Infected hepatocytes emit light due to the luciferase reaction. Assay results are presented as the percent inhibition of light emission compared to control. […]
Format: functional
Details: sporozoite; for IC90: read-out: LUCIFERASE INFECTION ASSAY - IC90

Structure (SMILES)	IC90 [µM]	other results
CC(N=C(S)Nc1ccc(OC(F)F)c(Cl)c1)C(C)(C)C (configuration not stated)	> 10	IC50 (HEPG2TOX_HILL_SLOPE 8.22, HEPG2TOX_R_SQUARED 0.242, PBLUC_HILL_SLOPE 12.6, PBLUC_R_SQUARED 0.772, read-out: LUCIFERASE INFECTION ASSAY - IC50): 8.6 µM
CCN(Cc1ccccc1)c1ccc(/C=N/N=C(N)N)cc1	5.13	IC50 (HEPG2TOX_HILL_SLOPE 8.25, HEPG2TOX_R_SQUARED 0.944, PBLUC_HILL_SLOPE 2.7, PBLUC_R_SQUARED 0.838, read-out: LUCIFERASE INFECTION ASSAY - IC50): 2.27 µM
O=C(NC1CC1)c1ccc(-c2cn3c(-c4ccc5ncccc5c4)cnc3cn2)cc1	> 8.14	IC50 (HEPG2TOX_HILL_SLOPE 8.34, HEPG2TOX_R_SQUARED 0.193, PBLUC_HILL_SLOPE 5.05, PBLUC_R_SQUARED 0.479, read-out: LUCIFERASE INFECTION ASSAY - IC50): 7.19 µM
FC(F)(F)c1cccc(-c2ccc3ncc(-c4ccncc4)n3n2)c1	1.31	IC50 (HEPG2TOX_HILL_SLOPE 8.22, HEPG2TOX_R_SQUARED 0.275, PBLUC_HILL_SLOPE 7.22, PBLUC_R_SQUARED 0.51, read-out: LUCIFERASE INFECTION ASSAY - IC50): 0.969 µM
COc1ccc(N2C(=O)c3ccccc3C(C=NNC(=O)c3ccc(C)cc3)C2=O)cc1OC (configuration not stated)	5.03	IC50 (HEPG2TOX_HILL_SLOPE 8.3, HEPG2TOX_R_SQUARED 0.704, PBLUC_HILL_SLOPE 7.2, PBLUC_R_SQUARED 0.273, read-out: LUCIFERASE INFECTION ASSAY - IC50): 3.7 µM
CC(=O)N1N=C(c2ccccc2O)CC1c1c(F)cccc1Cl (configuration not stated)	9.88	IC50 (HEPG2TOX_HILL_SLOPE 8.22, HEPG2TOX_R_SQUARED 0.351, PBLUC_HILL_SLOPE 15.6, PBLUC_R_SQUARED 0.178, read-out: LUCIFERASE INFECTION ASSAY - IC50): 8.59 µM
COc1ccccc1NC(=O)C(C)OC(=O)c1ccc(NS(=O)(=O)c2ccc(Cl)c(Cl)c2)cc1 (configuration not stated)	> 10	IC50 (HEPG2TOX_HILL_SLOPE 8.29, HEPG2TOX_R_SQUARED 0.881, read-out: LUCIFERASE INFECTION ASSAY - IC50): > 10 µM
Cc1cccc(-c2nnc(Sc3nc(C)nc4sc5c(c34)CCCC5)n2CC(N)=O)c1	1.1	IC50 (HEPG2TOX_HILL_SLOPE 8.24, HEPG2TOX_R_SQUARED 0.61, PBLUC_HILL_SLOPE 14.6, PBLUC_R_SQUARED 0.735, read-out: LUCIFERASE INFECTION ASSAY - IC50): 0.944 µM
NC(=O)c1ccc(-c2cc(-c3ccc(F)cc3)cnc2N)cc1	2.33	IC50 (HEPG2TOX_HILL_SLOPE 8.28, HEPG2TOX_R_SQUARED 0.58, PBLUC_HILL_SLOPE 436, PBLUC_R_SQUARED 0.522, read-out: LUCIFERASE INFECTION ASSAY - IC50): 2.32 µM
CC(=O)C1C2C(=O)N(C(C)(C)C)C(=O)C2C2C=Cc3ccc4cccnc4c3N21 (configuration not stated)	6.42	IC50 (HEPG2TOX_HILL_SLOPE 8.2, HEPG2TOX_R_SQUARED 0.867, PBLUC_HILL_SLOPE 4.87, PBLUC_R_SQUARED 0.475, read-out: LUCIFERASE INFECTION ASSAY - IC50): 4.09 µM
C/C(=N\NC(=S)NC(C)(C)C)c1cc(F)cc(F)c1O	10.5	IC50 (HEPG2TOX_HILL_SLOPE 8.26, HEPG2TOX_R_SQUARED 0.458, PBLUC_HILL_SLOPE 21.3, PBLUC_R_SQUARED 0.177, read-out: LUCIFERASE INFECTION ASSAY - IC50): 9.5 µM
CC(OC(=O)c1c(NC(=O)C2CCCCC2)sc2c1CCC2)C(=O)Nc1[nH]cnc2ncnc1-2 (configuration not stated)	> 10	IC50 (HEPG2TOX_HILL_SLOPE 8.29, HEPG2TOX_R_SQUARED 0.38, read-out: LUCIFERASE INFECTION ASSAY - IC50): > 10 µM
O=C(COc1ccc2c3c(c(=O)oc2c1)CCC3)Nc1nc(-c2ccccn2)cs1	> 10	IC50 (HEPG2TOX_HILL_SLOPE 8.22, HEPG2TOX_R_SQUARED 0.725, PBLUC_HILL_SLOPE 12.7, PBLUC_R_SQUARED 0.0522, read-out: LUCIFERASE INFECTION ASSAY - IC50): 9.13 µM
O=C1/C(=C/c2ccc3c(c2)OCO3)CCCc2ccccc21	> 11.3	IC50 (HEPG2TOX_HILL_SLOPE 8.25, HEPG2TOX_R_SQUARED 0.793, PBLUC_HILL_SLOPE 3.07, PBLUC_R_SQUARED 0.361, read-out: LUCIFERASE INFECTION ASSAY - IC50): > 11.3 µM
CCCCNC(=O)Nc1nc(-c2ccccc2)cn1/N=C/c1ccccc1	> 10	IC50 (HEPG2TOX_HILL_SLOPE 8.27, HEPG2TOX_R_SQUARED 0.417, read-out: LUCIFERASE INFECTION ASSAY - IC50): > 10 µM
COc1cc(-c2cn3c(-c4cccc(C(C)=O)c4)cnc3cn2)ccc1O	> 9.18	IC50 (HEPG2TOX_HILL_SLOPE 8.28, HEPG2TOX_R_SQUARED 0.589, PBLUC_HILL_SLOPE 10.1, PBLUC_R_SQUARED 0.274, read-out: LUCIFERASE INFECTION ASSAY - IC50): 7.75 µM

Structure (SMILES)	IC90 [µM]	other results
O=C(/C=C/c1ccccc1OC(F)F)N(Cc1ccccc1)c1nnc(SC(F)F)s1	3.6	IC50 (HEPG2TOX_HILL_SLOPE 8.23, HEPG2TOX_R_SQUARED 0.589, PBLUC_HILL_SLOPE 26.6, PBLUC_R_SQUARED 0.272, read-out: LUCIFERASE INFECTION ASSAY - IC50): 3.31 µM
FC(F)Oc1ccc(NC(=S)NCC23CC4CC(CC(C4)C2)C3)cc1	9.77	IC50 (HEPG2TOX_HILL_SLOPE 8.2, HEPG2TOX_R_SQUARED 0.229, PBLUC_HILL_SLOPE 14.4, PBLUC_R_SQUARED 0.791, read-out: LUCIFERASE INFECTION ASSAY - IC50): 8.38 µM
Cn1cc(-c2cn3c(-c4cccc(O)c4)cnc3cn2)cn1	> 11.3	IC50 (HEPG2TOX_HILL_SLOPE 8.37, HEPG2TOX_R_SQUARED 0.807, PBLUC_HILL_SLOPE 3.66, PBLUC_R_SQUARED 0.561, read-out: LUCIFERASE INFECTION ASSAY - IC50): 6.93 µM
C=C(C)[C@@H]1CC=C(CN2CCC3(CC2)C(=O)N(Cc2cccnc2)C(=O)N3CCc2ccccc2)CC1	> 6.62	IC50 (HEPG2TOX_HILL_SLOPE 8.2, HEPG2TOX_R_SQUARED 0.91, PBLUC_HILL_SLOPE 3.93, PBLUC_R_SQUARED 0.652, read-out: LUCIFERASE INFECTION ASSAY - IC50): 3.82 µM
Cc1c(C(=O)Nc2ccccc2C(=O)NC2CC2)cnn1-c1cccc(C(F)(F)F)c1	0.41	IC50 (HEPG2TOX_HILL_SLOPE 8.3, HEPG2TOX_R_SQUARED 0.547, PBLUC_HILL_SLOPE 12.1, PBLUC_R_SQUARED 0.521, read-out: LUCIFERASE INFECTION ASSAY - IC50): 0.342 µM
COc1ccc(N/N=C2\C=CC(=O)c3ncccc32)cc1	> 10	IC50 (HEPG2TOX_HILL_SLOPE 8.38, HEPG2TOX_R_SQUARED 0.289, PBLUC_HILL_SLOPE 16, PBLUC_R_SQUARED 0.427, read-out: LUCIFERASE INFECTION ASSAY - IC50): 9.1 µM
COc1cc(C(=O)NCCCn2ccc3ccccc32)cc(OC)c1C	> 10	IC50 (HEPG2TOX_HILL_SLOPE 8.33, HEPG2TOX_R_SQUARED 0.471, PBLUC_HILL_SLOPE 17.9, PBLUC_R_SQUARED 0.367, read-out: LUCIFERASE INFECTION ASSAY - IC50): 9.65 µM
CN(C)C(=O)c1ccc(-c2cc3c(Nc4cccc(OC(F)(F)F)c4)nccc3[nH]2)cc1	> 10	IC50 (HEPG2TOX_HILL_SLOPE 8.24, HEPG2TOX_R_SQUARED 0.393, PBLUC_HILL_SLOPE 3.02, PBLUC_R_SQUARED 0.574, read-out: LUCIFERASE INFECTION ASSAY - IC50): 4.92 µM
CN(CC(=O)Nc1nc(C23CC4CC(CC(C4)C2)C3)cs1)C(=O)c1ccco1	4.63	IC50 (HEPG2TOX_HILL_SLOPE 8.2, HEPG2TOX_R_SQUARED 0.447, PBLUC_HILL_SLOPE 10.5, PBLUC_R_SQUARED 0.337, read-out: LUCIFERASE INFECTION ASSAY - IC50): 3.76 µM
O=C(Nc1cccc(-n2cnnn2)c1)c1ccc(-c2ccccc2Cl)o1	> 9.02	IC50 (HEPG2TOX_HILL_SLOPE 8.29, HEPG2TOX_R_SQUARED 0.71, PBLUC_HILL_SLOPE 14.4, PBLUC_R_SQUARED 0.296, read-out: LUCIFERASE INFECTION ASSAY - IC50): 8.92 µM
Cc1oc(C(C)(C)C)cc1-c1cc(NC(=O)Nc2ccc(OC(F)(F)F)cc2)n(-c2cc(C(F)(F)F)cc(C(F)(F)F)c2)n1	4.49	IC50 (HEPG2TOX_HILL_SLOPE 8.23, HEPG2TOX_R_SQUARED 0.187, PBLUC_HILL_SLOPE 2.09, PBLUC_R_SQUARED 0.645, read-out: LUCIFERASE INFECTION ASSAY - IC50): 1.57 µM
CCCCNC(=O)c1c(NC(=O)c2cccc(C)c2)nc2ccccn12	6.37	IC50 (HEPG2TOX_HILL_SLOPE 8.37, HEPG2TOX_R_SQUARED 0.0961, PBLUC_HILL_SLOPE 7.21, PBLUC_R_SQUARED 0.187, read-out: LUCIFERASE INFECTION ASSAY - IC50): 4.7 µM
CCC(C)NC(=O)c1c(NC(=O)c2cccc(C)c2)nc2ccc(C)cn12 (configuration not stated)	6.6	IC50 (HEPG2TOX_HILL_SLOPE 8.22, HEPG2TOX_R_SQUARED 0.0887, PBLUC_HILL_SLOPE 4.24, PBLUC_R_SQUARED 0.444, read-out: LUCIFERASE INFECTION ASSAY - IC50): 3.93 µM
OCc1cccc(-c2cnc3ccc(-c4cccc(OC(F)(F)F)c4)nn23)c1	4.21	IC50 (HEPG2TOX_HILL_SLOPE 8.38, HEPG2TOX_R_SQUARED 0.945, PBLUC_HILL_SLOPE 12.7, PBLUC_R_SQUARED 0.452, read-out: LUCIFERASE INFECTION ASSAY - IC50): 3.54 µM
COc1ccccc1-c1nnc(SC(C(=O)Nc2cc(Cl)cc(Cl)c2)c2ccccc2)o1 (configuration not stated)	7.61	IC50 (HEPG2TOX_HILL_SLOPE 8.26, HEPG2TOX_R_SQUARED 0.825, PBLUC_HILL_SLOPE 4.24, PBLUC_R_SQUARED 0.374, read-out: LUCIFERASE INFECTION ASSAY - IC50): 4.54 µM
